Earlier results on 1 substance are cited in paper PMC6669827 (Toxins, 2019).

This data set deals with rat α9α10 nAChR. The following applies: cited from earlier work.

In the case of Vc1.1, the “affinity for rat versus human α9/α10 (in words)” value is recorded as “the affinity is higher for the rat subtypes”.
